Experimental data published in DBAASP.
≈ marks a conversion by molar mass, not a printed value.

Experiments:
Assay in all cases: ≥ marks a high value that may be exact or a test limit, other limits are often not marked, values filed in µg/mL are converted to µM
Escherichia coli ML-35 = test system: Escherichia coli ML-35
[1] = test system: Staphylococcus aureus ATCC 29213
[2] = test system: Staphylococcus epidermidis ATCC 12228
[3] = test system: Escherichia coli ATCC 25922
[4] = test system: Bacillus subtilis ATCC 23857
Saccharomyces cerevisiae = test system: Saccharomyces cerevisiae
Micrococcus luteus = test system: Micrococcus luteus
[5] = test system: Pseudomonas aeruginosa ATCC 15692
[6] = test system: Staphylococcus aureus ATCC 25923
[7] = test system: Mycobacterium tuberculosis H37Rv
[8] = test system: Escherichia coli ATCC 8739
[9] = test system: Escherichia coli DH5alpha
[10] = test system: Staphylococcus aureus ATCC 6538
[11] = test system: Micrococcus luteus ATCC 4698
[12] = test system: Pseudomonas aeruginosa ATCC 27853
Bacillus megaterium = test system: Bacillus megaterium
[13] = test system: Salmonella enterica subsp. enterica serovar Typhimurium ATCC 14028
Klebsiella pneumoniae = test system: Klebsiella pneumoniae
[14] = test system: Micrococcus luteus ATCC 9341
Salmonella typhimurium = test system: Salmonella typhimurium
Pseudomonas aeruginosa = test system: Pseudomonas aeruginosa

SMILES: CC[C@H](C)[C@H](N)C(=O)N[C@@H](CC(C)C)C(=O)NCC(=O)N[C@H](C(=O)N[C@H](C(=O)N1CCC[C@H]1C(=O)NCC(=O)N[C@@H](CC(C)C)C(=O)N[C@@H](CC(C)C)C(=O)N[C@@H](CCCCN)C(=O)NCC(=O)N[C@@H](CC(C)C)C(N)=O)[C@@H](C)CC)[C@@H](C)O [ILGTIPGLLKGL]
- MIC (Escherichia coli ML-35): ≥ 256 µM
- MIC [1]: > 256 µM
- MIC [2]: > 256 µM
- MIC [3]: > 256 µM
- MIC [4]: ≥ 256 µM

SMILES: CC[C@H](C)[C@H](NC(=O)[C@H](C)NC(=O)[C@H](CC(N)=O)NC(=O)[C@@H](NC(=O)CNC(=O)CNC(=O)[C@H](CCCCN)NC(=O)[C@H](C)NC(=O)[C@H](Cc1ccccc1)NC(=O)[C@H](CCCCN)NC(=O)[C@H](CCCCN)NC(=O)[C@H](C)NC(=O)[C@H](Cc1ccccc1)NC(=O)[C@H](CC(N)=O)NC(=O)[C@H](C)NC(=O)[C@@H](NC(=O)[C@H](CCCCN)NC(=O)[C@H](CO)NC(=O)[C@H](CCSC)NC(=O)[C@H](Cc1ccccc1)NC(=O)CN)C(C)C)C(C)C)C(=O)N[C@@H](CCSC)C(=O)N[C@@H](CC(N)=O)C(=O)N[C@@H](CCC(N)=O)C(=O)N[C@@H](CCCCN)C(=O)O [GFMSKVANFAKKFAKGGVNAIMNQK]
- MIC (Saccharomyces cerevisiae): 8 µM (≈ 21.5 µg/mL)
- MIC (Micrococcus luteus): 0.5 µM (≈ 1.34 µg/mL)
- MIC [5]: 4 µM (≈ 10.7 µg/mL)
- MIC [3]: 1 µM (≈ 2.69 µg/mL)
- MIC [6]: 128 µM (≈ 344 µg/mL)

SMILES: CC[C@H](C)[C@H](NC(=O)CN)C(=O)NCC(=O)N[C@@H](CCCCN)C(=O)N[C@@H](Cc1ccccc1)C(=O)N[C@@H](CC(C)C)C(=O)N[C@@H](CCCCN)C(=O)N[C@@H](CO)C(=O)N[C@@H](CCCCN)C(=O)NCC(=O)N[C@@H](CCCCN)C(=O)N[C@@H](Cc1ccccc1)C(=O)NCC(=O)N[C@@H](CCCCN)C(=O)N[C@@H](C)C(=O)O [GIGKFLKSKGKFGKA]
- MIC [7]: ≥ 192 µM

SMILES: CC[C@H](C)[C@H](NC(=O)[C@H](CCCCN)NC(=O)[C@H](Cc1ccc(O)cc1)NC(=O)[C@H](Cc1ccccc1)NC(=O)[C@H](CCC(N)=O)NC(=O)[C@H](CO)NC(=O)[C@H](CCC(=O)O)NC(=O)[C@H](CCCN=C(N)N)NC(=O)[C@H](CC(N)=O)NC(=O)[C@@H]1CCCN1)C(=O)N[C@@H](CC(C)C)C(=O)N[C@@H](CCCN=C(N)N)C(=O)N[C@@H](CCCCN)C(=O)N[C@H](C(=O)N[C@@H](CC(C)C)C(=O)N[C@@H](CO)C(=O)N[C@@H](CCCCN)C(=O)N[C@H](C(=O)N[C@H](C(=O)O)C(C)C)[C@@H](C)CC)[C@@H](C)CC [PNRESQFYKILRKILSKIV]
- MIC [8]: 6.86 µM (≈ 16 µg/mL)
- MIC [6]: 27.4 µM (≈ 64 µg/mL)

SMILES: CSCC[C@H](NC(=O)CNC(=O)[C@H](CC(C)C)NC(=O)[C@H](CCCN=C(N)N)NC(=O)[C@H](CCCN=C(N)N)NC(=O)[C@H](C)N)C(=O)N[C@@H](CC(N)=O)C(=O)N1CCC[C@H]1C(=O)N[C@@H](Cc1c[nH]c2ccccc12)C(=O)N[C@@H](CCCCN)C(=O)N[C@H](C(=O)N1CCC[C@H]1C(=O)N1CCC[C@H]1C(=O)N[C@@H](C)C(=O)N[C@@H](CCCCN)C(=O)N1CCC[C@H]1C(=O)N[C@@H](CCCCN)C(=O)NCC(=O)N[C@@H](CO)C(=O)N[C@@H](CCCCN)C(=O)O)[C@@H](C)O [ARRLGMNPWKTPPAKPKGSK]
- MIC [7]: ≥ 90.1 µM

SMILES: CC(C)C[C@H](NC(=O)[C@H](CC(C)C)NC(=O)[C@H](CCCCN)NC(=O)[C@H](CO)NC(=O)[C@H](CC(C)C)NC(=O)[C@H](C)NC(=O)[C@H](CCCCN)NC(=O)[C@@H](NC(=O)[C@H](CC(C)C)NC(=O)[C@H](C)NC(=O)CNC(=O)[C@H](CC(C)C)NC(=O)[C@@H](N)Cc1ccccc1)C(C)C)C(=O)O [FLGALVKALSKLL]
- MIC [9]: 21.9 µM (≈ 30 µg/mL)
- MIC [10]: 5.1 µM (≈ 7 µg/mL)
- MIC [2]: 8.01 µM (≈ 11 µg/mL)
- MIC [11]: 3.64 µM (≈ 5 µg/mL)

SMILES: CC[C@H](C)[C@H](NC(=O)[C@H](CCCCN)NC(=O)[C@H](CCCCN)NC(=O)[C@H](CC(C)C)NC(=O)[C@H](CCCCN)NC(=O)[C@H](CCC(=O)O)NC(=O)[C@H](CCCCN)NC(=O)[C@@H]1CCCN1C(=O)[C@H](CCCCN)NC(=O)[C@H](CC(N)=O)NC(=O)[C@H](CCCN=C(N)N)NC(=O)[C@@H]1CCCN1C(=O)[C@H](CCCCN)NC(=O)[C@H](CCCN=C(N)N)NC(=O)[C@H](CC(C)C)NC(=O)[C@H](CCCN=C(N)N)NC(=O)[C@H](CCCCN)NC(=O)[C@H](CCCN=C(N)N)NC(=O)[C@H](CC(C)C)NC(=O)CN)C(=O)O [GLRKRLRKPRNKPKEKLKKI]
- MIC [12]: > 64 µM
- MIC (Escherichia coli ML-35): ≥ 64 µM
- MIC (Bacillus megaterium): ≥ 64 µM
- MIC [13]: > 64 µM
- MIC [3]: > 64 µM
- MIC [6]: > 64 µM

SMILES: CC[C@H](C)[C@H](NC(=O)[C@H](CCCCN)NC(=O)[C@H](CCCN=C(N)N)NC(=O)CNC(=O)[C@H](CC(C)C)NC(=O)[C@H](CCCN=C(N)N)NC(=O)[C@H](CCCN=C(N)N)NC(=O)[C@H](CC(C)C)NC(=O)CNC(=O)[C@H](CCCN=C(N)N)NC(C)=O)C(=O)N[C@@H](CCCCN)C(=O)N[C@@H](CCCCN)C(=O)NCC(=O)N[C@@H](CC(C)C)C(=O)N[C@@H](CCCCN)C(=O)N[C@@H](CCCCN)C(=O)N[C@@H](Cc1ccc(O)cc1)C(=O)NCC(N)=O [RGLRRLGRKIKKGLKKYG]
- MIC [12]: 17.7 µM (≈ 38.3 µg/mL)
- MIC [3]: 35.4 µM (≈ 76.7 µg/mL)
- MIC [8]: 17.7 µM (≈ 38.3 µg/mL)
- MIC (Klebsiella pneumoniae): 70.7 µM (≈ 153 µg/mL)

SMILES: CC[C@H](C)[C@H](NC(=O)[C@H](CCCCN)NC(=O)[C@@H](N)CCCCN)C(=O)N[C@@H](CC(N)=O)C(=O)N[C@@H](CC(N)=O)C(=O)N[C@H](C(=O)N[C@H](C(=O)N[C@@H](CC(C)C)C(=O)N[C@@H](CO)C(=O)NCC(=O)N[C@@H](CC(C)C)C(=O)N[C@@H](CC(=O)O)C(=O)N[C@@H](CO)C(=O)N[C@H](C(=O)N[C@@H](C)C(=O)N[C@@H](CO)C(=O)N[C@@H](Cc1ccccc1)C(=O)N[C@@H](CO)C(=O)O)C(C)C)[C@@H](C)CC)[C@@H](C)O [KKINNTILSGLDSVASFS]
- MIC [8]: ≥ 135 µM
- MIC [6]: > 135 µM

SMILES: CC(C)C[C@H](NC(=O)CNC(=O)[C@H](C)NC(=O)[C@@H](NC(=O)[C@H](CC(N)=O)NC(=O)[C@H](CO)NC(=O)[C@H](CC(C)C)NC(=O)[C@H](CC(C)C)NC(=O)CN)C(C)C)C(=O)N[C@@H](CC(C)C)C(=O)N[C@@H](CCCCN)C(=O)N[C@@H](CCC(N)=O)C(=O)N[C@@H](Cc1ccccc1)C(=O)N[C@@H](C)C(=O)N[C@@H](CCCCN)C(=O)NCC(=O)NCC(=O)N[C@H](C(=O)N[C@@H](CC(N)=O)C(=O)N[C@@H](C)C(=O)N[C@H](C(=O)N[C@@H](CC(C)C)C(=O)N[C@@H](CC(N)=O)C(=O)N1CCC[C@H]1C(=O)N[C@@H](CCCCN)C(=O)O)C(C)C)C(C)C [GLLSNVAGLLKQFAKGGVNAVLNPK]
- MIC (Saccharomyces cerevisiae): ≥ 32 µM
- MIC (Micrococcus luteus): 1 µM (≈ 2.51 µg/mL)
- MIC [5]: ≥ 32 µM
- MIC [3]: 8 µM (≈ 20.1 µg/mL)
- MIC [6]: 128 µM (≈ 321 µg/mL)

SMILES: CC(C)[C@H](NC(=O)[C@H](CCCCN)NC(=O)[C@H](Cc1ccccc1)NC(=O)[C@@H](NC(=O)[C@@H](NC(=O)[C@@H](N)CCCCN)C(C)C)C(C)C)C(=O)N[C@@H](CCCCN)C(=O)N[C@@H](Cc1ccccc1)C(=O)N[C@@H](CCCCN)C(N)=O [KVVFKVKFK]
- MIC [10]: 5.57 µM (≈ 6.24 µg/mL)
- MIC [14]: 5.57 µM (≈ 6.24 µg/mL)

SMILES: CC(C)C[C@H](NC(=O)[C@H](CC(C)C)NC(=O)[C@H](CCCCN)NC(=O)[C@H](CO)NC(=O)[C@@H](NC(=O)[C@@H](NC(=O)[C@H](CCCCN)NC(=O)[C@H](Cc1ccccc1)NC(=O)[C@H](CC(C)C)NC(=O)[C@H](C)NC(=O)CNC(=O)[C@H](CC(C)C)NC(=O)[C@@H](N)Cc1ccccc1)C(C)C)C(C)C)C(=O)O [FLGALFKVVSKLL]
- MIC [9]: 27.9 µM (≈ 40 µg/mL)
- MIC [10]: 5.58 µM (≈ 8 µg/mL)
- MIC [2]: 9.76 µM (≈ 14 µg/mL)
- MIC [11]: 4.18 µM (≈ 6 µg/mL)

SMILES: CC[C@H](C)[C@H](N)C(=O)N[C@@H](CC(C)C)C(=O)N1CCC[C@H]1C(=O)N[C@@H](Cc1c[nH]c2ccccc12)C(=O)N[C@@H](CCCCN)C(=O)N[C@@H](Cc1c[nH]c2ccccc12)C(=O)N1CCC[C@H]1C(=O)N[C@@H](Cc1c[nH]c2ccccc12)C(=O)N[C@@H](Cc1c[nH]c2ccccc12)C(=O)N[C@@H](C)C(=O)N[C@@H](Cc1c[nH]c2ccccc12)C(=O)N[C@@H](CCCN=C(N)N)C(=O)N[C@@H](CCCN=C(N)N)C(N)=O [ILPWKWPWWAWRR]
- MIC (Salmonella typhimurium): ≥ 50 µM
- MIC [9]: 15 µM (≈ 28.2 µg/mL)
- MIC (Pseudomonas aeruginosa): 50 µM (≈ 94 µg/mL)
- MIC (Klebsiella pneumoniae): 25 µM (≈ 47 µg/mL)
- MIC [14]: 1.6 µM (≈ 3.01 µg/mL)
